Tests used:
Assay in all cases: relative viability (nuclei count vs DMSO), 5 days (fraction); higher = more cells survive
Cediranib + Tozasertib = compound: COc1cc2c(Oc3ccc4[nH]c(C)cc4c3F)ncnc2cc1OCCCN1CCCC1 [Cediranib] + Cc1cc(Nc2cc(N3CCN(C)CC3)nc(Sc3ccc(NC(=O)C4CC4)cc3)n2)n[nH]1 [Tozasertib] (partner 0.1 µM)
Outline: (§1)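 Lung cancer cell lines, seeded in 1536-well plates, were treated the following day by pin tool with a single drug or with five library-drug doses (not always all listed) in √10 steps on top of a fixed anchor-drug dose. Cells were fixed and nuclei stained in one step after 5 days, and nuclei were counted. Relative viability is the nuclei count for treated wells divided by that for vehicle wells, reported as medians of duplicate plates.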

Decitabine + Phenformin = compound: Nc1ncn([C@H]2C[C@H](O)[C@@H](CO)O2)c(=O)n1 [Decitabine] + N=C(N)NC(=N)NCCc1ccccc1 [Phenformin] (partner 250 µM)
Outline: as §1

Decitabine + Trametinib = compound: Nc1ncn([C@H]2C[C@H](O)[C@@H](CO)O2)c(=O)n1 [Decitabine] + CC(=O)Nc1cccc(-n2c(=O)n(C3CC3)c(=O)c3c(Nc4ccc(I)cc4F)n(C)c(=O)c(C)c32)c1 [Trametinib] (partner 0.02 µM)
Outline: as §1

Decitabine + Dasatinib = compound: Nc1ncn([C@H]2C[C@H](O)[C@@H](CO)O2)c(=O)n1 [Decitabine] + Cc1nc(Nc2ncc(C(=O)Nc3c(C)cccc3Cl)s2)cc(N2CCN(CCO)CC2)n1 [Dasatinib] (partner 0.075 µM)
Outline: as §1

Cell Line | relative viability (Cediranib + Tozasertib; first compound 0.04 µM) | relative viability (Cediranib + Tozasertib; first compound 0.1265 µM) | relative viability (Cediranib + Tozasertib; first compound 0.4 µM) | relative viability (Cediranib + Tozasertib; first compound 1.265 µM) | relative viability (Cediranib + Tozasertib; first compound 4 µM) | relative viability (Decitabine + Phenformin; first compound 0.04 µM) | relative viability (Decitabine + Phenformin; first compound 0.1265 µM) | relative viability (Decitabine + Phenformin; first compound 0.4 µM) | relative viability (Decitabine + Phenformin; first compound 1.265 µM) | relative viability (Decitabine + Phenformin; first compound 4 µM) | relative viability (Decitabine + Trametinib; first compound 0.04 µM) | relative viability (Decitabine + Trametinib; first compound 0.1265 µM) | relative viability (Decitabine + Trametinib; first compound 0.4 µM) | relative viability (Decitabine + Trametinib; first compound 1.265 µM) | relative viability (Decitabine + Trametinib; first compound 4 µM) | relative viability (Decitabine + Dasatinib; first compound 0.04 µM) | relative viability (Decitabine + Dasatinib; first compound 0.1265 µM) | relative viability (Decitabine + Dasatinib; first compound 0.4 µM) | relative viability (Decitabine + Dasatinib; first compound 1.265 µM) | relative viability (Decitabine + Dasatinib; first compound 4 µM)
NCI-H1975 | 0.822 | 0.809 | 0.699 | 0.822 | 0.768 | 0.281 | 0.27 | 0.214 | 0.229 | 0.197 | 0.284 | 0.272 | 0.219 | 0.233 | 0.219 | 0.325 | 0.258 | 0.197 | 0.194 | 0.15
NCI-H2085 | 0.756 | 0.877 | 0.757 | 0.836 | 0.784 | 0.516 | 0.51 | 0.381 | 0.361 | 0.394 | 0.514 | 0.451 | 0.394 | 0.364 | 0.308 | 0.25 | 0.256 | 0.285 | 0.279 | 0.204
NCI-H3122 | 0.393 |  | 0.364 | 0.53 | 0.468 | 0.371 | 0.364 | 0.342 |  | 0.315 | 0.213 | 0.208 | 0.243 | 0.167 | 0.218 | 0.665 | 0.833 | 0.233 | 0.321 | 0.459
NCI-H1651 | 0.619 | 0.696 | 0.596 | 0.676 | 0.815 | 0.331 | 0.345 | 0.383 | 0.287 | 0.318 | 0.787 | 0.757 | 0.692 | 0.622 | 0.487 | 0.418 | 0.506 | 0.398 | 0.341 | 0.385
NCI-H522 | 0.687 | 0.465 | 0.541 | 0.535 | 0.51 | 0.564 | 0.674 | 0.514 | 0.552 | 0.65 | 0.718 | 0.714 | 0.547 | 0.537 | 0.513 | 1.02 | 0.748 | 0.607 | 0.632 | 0.678
NCI-H441 | 0.787 |  | 0.545 | 0.55 | 0.677 | 0.494 | 0.428 | 0.306 | 0.289 | 0.231 | 0.317 | 0.281 | 0.255 | 0.183 | 0.206 | 0.335 | 0.266 | 0.26 | 0.211 | 0.206
NCI-H2126 | 0.84 | 0.916 | 0.77 | 0.777 | 0.773 | 0.478 | 0.483 | 0.423 | 0.451 | 0.468 | 0.576 | 0.545 | 0.474 | 0.422 | 0.44 | 0.603 | 0.547 | 0.429 | 0.421 | 0.376
RERF-LC-KJ | 0.598 | 0.535 | 0.469 | 0.544 | 0.464 | 0.459 | 0.386 |  | 0.402 | 0.333 | 0.808 | 0.885 | 0.558 | 0.594 | 0.636 | 0.703 | 0.741 |  | 0.465 | 0.485
NCI-H1666 | 0.651 | 0.678 | 0.598 | 0.595 | 0.624 | 0.617 | 0.568 | 0.522 | 0.506 | 0.593 | 0.785 | 0.873 | 0.713 | 0.783 | 0.836 | 0.773 | 0.735 | 0.684 | 0.636 | 0.617
PC-14 | 0.711 | 0.651 | 0.585 | 0.61 | 0.483 | 0.114 | 0.339 | 0.128 | 0.126 | 0.163 | 0.51 | 0.343 | 0.0811 | 0.146 | 0.128 | 0.0322 | 0.142 | 0.0565 | 0.0706 | 0.0858
NCI-H1915 | 0.467 | 0.384 | 0.428 | 0.46 | 0.42 | 0.291 | 0.294 | 0.274 | 0.242 | 0.26 | 0.233 | 0.223 | 0.218 | 0.192 | 0.184 | 0.253 | 0.228 | 0.189 | 0.2 | 0.193
NCI-H661 | 0.255 | 0.365 | 0.338 | 0.349 | 0.372 | 0.289 | 0.282 | 0.267 | 0.281 | 0.277 | 0.502 | 0.577 | 0.508 | 0.392 | 0.404 | 0.679 | 0.629 | 0.475 | 0.305 | 0.347
SK-MES-1 | 0.903 | 0.917 | 0.908 | 0.924 | 0.898 | 0.535 | 0.553 | 0.346 | 0.271 | 0.291 | 0.485 | 0.595 | 0.453 | 0.345 | 0.382 | 0.333 | 0.234 | 0.161 | 0.135 | 0.158
NCI-H1944 | 0.255 | 0.264 | 0.244 | 0.24 | 0.266 | 0.191 | 0.21 | 0.227 | 0.166 | 0.199 | 0.435 | 0.441 | 0.369 | 0.254 | 0.256 | 0.201 | 0.242 | 0.177 | 0.2 | 0.211
HCC-78 | 0.448 | 0.474 | 0.512 | 0.54 | 0.441 | 0.626 | 0.634 | 0.593 | 0.505 | 0.477 | 0.758 | 0.688 | 0.581 | 0.544 | 0.451 | 0.269 | 0.334 | 0.361 | 0.285 | 0.208
PC-3 [JPC-3] | 0.886 | 0.906 | 0.947 | 0.891 | 0.876 | 0.372 | 0.452 | 0.393 | 0.386 | 0.379 |  | 0.7 | 0.498 | 0.485 | 0.657 | 0.628 | 0.782 | 0.565 | 0.437 | 0.399

Source: the supplement of paper PMC10307832
